Data as given in patent US6034113A, “Derivatives of 1,3,4-oxadiazolone” (Bristol-Myers Squibb Company, priority 1999, dated 2000).

Tests used:
[1] = system: cloned mammalian (mSlo or hSlo) BK; assay: BK-mediated outward current, two-electrode voltage clamp in Xenopus oocytes; assay type: cell-based; conditions: 1 μM; at least 5 oocytes; mSlo or hSlo expressed in Xenopus oocytes
Protocol: (§1) The ability of the compound of Example 1 to open BK channels and increase whole-cell outward (K^+) BK-mediated currents was assessed under voltage-clamp conditions by determining their ability to increase cloned mammalian (mSlo or hSlo) BK--mediated outward current heterologously expressed in Xenopus oocytes [Butler, A., et al., Science, 261, pp. 221-224 (1993); and Dworetzky, S. I., et al., Mol. Brain Res., 27, pp.189-193 (1994)]. The two BK constructs employed represent nearly structurally identical homologous proteins, and have proven to be pharmacologically identical in our tests. To isolate BK current from native (background, non-BK) current, the specific and potent BK channel-blocking toxin iberiotoxin (IBTX) [Galvez, A., et al., J. Biol. Chem, 265, pp. 11083-11090 (1990)] was employed at a supramaximal concentration (50 nM). The relative contribution of BK channels current to total outward current was determined by subtraction of the current remaining in the presence of IBTX (non-BK current) from the current profiles obtained in all other experimental conditions (control, drug, and wash). […]

[2] = system: non-BK native currents in the oocytes; assay: Effect on non-BK native currents (IBTX-insensitive) in oocytes; assay type: cell-based, Xenopus; conditions: at the tested concentration; current remaining in presence of 50 nM IBTX
Protocol: as §1

[3] = Rapid screen of prodrug hydrolysis and drug release in plasma; assay type: in vitro ADME; conditions: 10 ug/mL in fresh rat plasma at 37° C.; stock 1 mg/mL in PEG-400; analysis 5 minutes after incubation
Protocol: A rapid screen to determine the ability of prodrugs to hydrolyze and release the drug (compound of Example 1) is conducted as follows. A 1 mg/mL stock solution of the prodrug is prepared in distilled water or acetonitrile or PEG-400. Plasma from freshly collected rat or human blood is used in this assay. To 1 mL of plasma at 37° C. was added 10 μL of stock solution of prodrug and mixed gently. Immediately after the mixing, 100 μL of plasma was removed and quenched with 300 μL of acetontrile (Zero time sample). Samples were also obtained at 30 minutes and quenched immediately. The quenched samples were centrifuged to obtain a clear supernatant for analysis. The stock solution, T=0 and T=30 samples were analyzed by a HPLC assay that separates the drug from the prodrug. Based on the relative peak areas of prodrug and drug in these samples, different prodrugs are characterized as fast, moderate and slow release agents. For example, in this model, the compound of Example 13 was dissolved in PEG-400 at a concentration of 1 mg/mL and incubated at 10 ug/mL in fresh rat plasma at 37° C.

[4] = system: focal cerebral ischemia in the Wistar rat; assay: Focal stroke model, permanent MCA/CCA occlusion; assay type: in vivo; conditions: 1 mg/kg intravenously, single bolus two hours after MCA occlusion; measured 24 hours after MCAO; vs vehicle-treated (water) control
Protocol: To determine the ability of the compounds of the present invention to reduce cell loss resulting from neuronal ischemia, a standard focal cerebral ischemia is induced by permanent occlusion of the left middle cerebral artery (MCA) and common carotid artery (CCA) with one hour occlusion of the right CCA in the Wistar rat. The surgeries are performed using the sub-temporal approach of A. Tamura, et al., J. Cereb. Blood Flow Metab., 1, pp. 53-60, (1981) and its modifications [K. Osbome, et al., J. Neurol Neurosurg. Psychiatry, 50, pp. 402-410 (1987) and S. Menzies, et al., Neurosurgery, 31, pp. 100-107, (1992).]
The compound of Example 13 was evaluated in the focal stroke model involving permanent occlusion of the left MCA (MCAO) and CCA (CCAO) and temporary occlusion of the right CCA in the Wistar rat. This procedure results in a reliably large neocortical infarct volume that is measured by means of vital dye exclusion in serial slices through the brain 24 hours after MCAO. In the present test, compounds were administered using an i.v. or i.p. route of administration two hours after occlusion.

## O=c1oc(-c2ccc(C(F)(F)F)cc2)nn1Cc1cc(Cl)ccc1O [Example 1, 3-[(5-Chloro-2-hydroxyphenyl)methyl]-5-[4-(trifluoromethyl)phenyl]-1,3,4-oxadiazol-2(3H)-one]
[1]
  increase of BK current, % of control of IBTX-sensitive current: 126%
[2]
  effect on non-BK native currents in the oocytes: did not effect non-BK native currents

## C[N+](C)(C)CCCC(=O)OCOc1ccc(Cl)cc1Cn1nc(-c2ccc(C(F)(F)F)cc2)oc1=O [Example 13, 3-[[[[4-Chloro-2-[[5-[4-(trifluoromethyl)phenyl]-2,3-dihydro-2-oxo-1,3,4oxadiazol-3-yl]methyl]phenoxy]methoxy]carbonyl]propyl]trimethylammonium methanesulfonate]
[3]
  conversion of prodrug to the compound of Example 1 in plasma: conversion of the compound of Example 13 to the compound of Example 1
[4]
  reduction of cortical infarct volume: about 17%
